Columns and labels:
[1] = tested on: rice seedlings; assay: Soaking seeds: effect on growth of rice seedlings; assay type: in vivo; conditions: for Chlorophyll content: rice leaves; for Chlorophyll content improved compared with the blank control / Plant height improved compared with the blank control / Root fresh weight / Root fresh weight improved compared with the blank control / Root length / Root length improved compared with the blank control / Plant height: rice seedlings; for Plant height: 3 leaves and 1 heart stage
Protocol: Rice seeds (variety “Dengliangyou 2108”) were washed clean with distilled water, disinfected with 75% alcohol for 3 minutes, washed with the distilled water for 3 times, and then disinfected with NaClO (5%) for about 10 minutes, taken out, and washed with the distilled water. Residual water on the surfaces of the seeds was absorbed with clean filter paper until the surfaces were dry and clean. 50 g of the healthy, full and uniform seeds were picked and placed in 100-mL conical flasks. 50 mL of a 2-amino-3-methylhexanoic acid aqueous solution with the concentrations of 0 nM, 10 nM, 100 nM and 1,000 nM was added into each bottle respectively, the seeds were soaked for 5 days at room temperature and taken out, 100 rice seeds to be tested with a consistent germination state were respectively selected, uniformly sowed in a rice seedling tray, and covered with sterile nutrient soil, the seedling tray was placed in a culture room at 28° C., and when 3 leaves and 1 heart of the rice seedlings were grown, the plant height, the root length, the root fresh weight and the overground part fresh weight of the rice seedlings were respectively measured.
(§1) 0.1 g of the rice leaves were accurately cut off for measuring the chlorophyll content. The rice leaves were extracted with 10 mL of an acetone ethanol extracting solution (80% acetone: 95% ethanol at a volume ratio of 1:1) for 24 hours in a dark place. A chlorophyll extracting stock solution was diluted by 3 times with the extracting solution as a reference solution, the light density values at wave lengths of 645 nm and 663 nm were measured with a spectrophotometer, and the chlorophyll content was calculated with a modifier formula of an Amnon method.
In the formula, Ch1a, Ch1b and Ch1t are the concentrations (mg/g·FW) of chlorophyll a, chlorophyll b and total chlorophyll, respectively; n is the dilution ratio; v is the volume of the extracting solution (L); m is the mass (g) of the leaves; and A663 and A645 are absorbance values of 663 nm and 645 nm, respectively.

[2] = tested on: cucumber seedlings; assay: Hydroponic treatment: rooting of radicle-removed cucumber seedlings; assay type: in vivo; conditions: for Lateral root number / Root length: cucumber seedlings, 6 days
From the text: To further investigate a promoting effect of 2-amino-3-methylhexanoic acid on growth of plant roots, a model system for studying root generation, a radicle-removed cucumber seedling system, was selected. Four layers of wet gauze were spread on a bottom part of a seedling box, and healthy, full and uniform cucumber seeds (variety “Chuxiaqiuguan”, Ningyang County Luming Seed Co., Ltd., Shandong Province) were picked, washed with distilled water, uniformly spread on the gauze, and then covered with four layers of the wet gauze for keeping in a dark place. After kept in a dark place in a 25° C. culture room for 24 hours, the germinated cucumber seeds were taken out and buried in a position 1 cm below the soil, a plurality of plants with consistent growth vigor and completely unfolded two cotyledons were taken after 3 days, the roots were washed with the distilled water, the radicles were cut off, and the plants were fixed with sponge strips and placed in a centrifuge tube box. 400 mL of a 2-amino-3-methylhexanoic acid aqueous solution at concentrations of 0, 10, 100, and 1,000 nM, respectively was added to each box. The hydroponic plants were placed in the 25° C. culture room. After 6 days of light culture, the plants were taken out and the root length and number of newly generated roots were measured and recorded.

[3] = tested on: strawberry seedlings; assay: Stem and leaf treatment: growth of strawberry seedlings; assay type: in vivo
Protocol: (§2) In 2021, an experiment was conducted in a Changshanxiang Mingyang family farm (standard greenhouse nursery base) in Zhangjiagang city, Jiangsu province. A strawberry variety to be tested was Hongyan, a tomato variety was Qianxi, and a hot pepper variety was Sujiao No. 5. 2-amino-3-methylhexanoic acid was taken, dissolved with distilled water, and diluted with the distilled water to obtain a solution of 100 nM (14.5 μg/L), a blank control was additionally set, and 0.02% Tween 20 as a surfactant and 14-hydroxylated brassinosteroid (Sichuan New Sun company) with the concentration of 37.5 μg/L as a control agent were added at the same time. Each treatment was repeated three times, the plot area was 20 m^2, and the liquid injection volume per plot was 1 L. The treatment method was foliage spray, an investigation was conducted on day 9 after the application, and the results were shown in Tables 3-5 and FIG. 3-FIG. 5.

[4] = tested on: tomato seedlings; assay: Stem and leaf treatment: growth of tomato seedlings; assay type: in vivo
Protocol: as §2

[5] = tested on: hot pepper seedlings; assay: Stem and leaf treatment: growth of hot pepper seedlings; assay type: in vivo
Protocol: as §2

[6] = tested on: strawberry plants; assay: Stem and leaf treatment: growth and yield of mature strawberry plants (field application); assay type: in vivo; conditions: for Leaf number / Leaf width / Plant height: mature strawberry plants; for Mass of fruits per plant / Number of fruits per plant: strawberries; for Chlorophyll content: strawberry leaves
Protocol: as §1
On Feb. 27, 2021, an experiment was conducted in a greenhouse of a farm of Baitu town, Jurong city, Jiangsu province, and the strawberry variety to be tested was Hongyan. The 2-amino-3-methylhexanoic acid was taken, dissolved with distilled water, and gradiently diluted with the distilled water to obtain solutions of 1,000 nM and 100 nM, a blank control was additionally set, and 0.02% Tween 20 as a surfactant was added at the same time. Each treatment was repeated three times, the plot area was 100 m^2, and the liquid injection volume per plot was 4.5 L. Three times of field application were conducted on February 27, March 3, and Mar. 8, 2021, respectively. The treatment method was foliage spray. The plant height, the leaf number, the leaf width, the number of fruits per plant, and the mass of fruits per plant were investigated on March 8. 0.2 g of strawberry leaves were cut off at the same time for measuring the chlorophyll content.

[7] = tested on: Bacillus subtilis; conditions: cited from earlier work
[8] = tested on: Escherichia coli K-12; conditions: cited from earlier work
[9] = tested on: Achromobacter butyri; conditions: cited from earlier work
[10] = tested on: A. ureafaciens; conditions: cited from earlier work
[11] = tested on: E. coli B; conditions: cited from earlier work
[12] = tested on: Pseudomonas aeruginosa; conditions: cited from earlier work
[13] = tested on: Aerobacter aerogenes; conditions: cited from earlier work
[14] = tested on: Brevibacterium helvolum; conditions: cited from earlier work
[15] = tested on: P. fluorescens; conditions: cited from earlier work
[16] = tested on: S. marcescens; conditions: cited from earlier work
[17] = foliage spray, day 9, 2-amino-3-methylhexanoic acid 100 nM, 14-hydroxylated brassinosteroid 37.5 μg/L
[18] = foliage spray, day 9, 2-amino-3-methylhexanoic acid 14.5 μg/L (100 nM), 14-hydroxylated brassinosteroid 37.5 μg/L
[19] = mature strawberry plants, 1,000 nM

Q: What does the source list for `CCCC(C)C(N)C(=O)O` (stereo not shown) [2-amino-3-methylhexanoic acid]?
A: Chlorophyll content ([1]; seed soaking 10 nM): 3.60 ± 0.055b mg/g · FW; Chlorophyll content ([1]; seed soaking 100 nM): 3.82 ± 0.079a mg/g · FW; Chlorophyll content ([1]; seed soaking 1,000 nM): 3.63 ± 0.013b mg/g · FW; Chlorophyll content improved compared with the blank control ([1]; seed soaking 10 nM): 31%; Plant height improved compared with the blank control ([1]; seed soaking 10 nM): 9%; Root fresh weight ([1]; seed soaking 10 nM): 0.039 ± 0.002c g; Root fresh weight improved compared with the blank control ([1]; seed soaking 10 nM): 18%; Root length ([1]; seed soaking 10 nM): 8.34 ± 0.53b cm; Root length improved compared with the blank control ([1]; seed soaking 10 nM): 14%; Plant height ([1]; seed soaking 10 nM): 25.24 ± 0.82b cm; Chlorophyll content improved compared with the blank control ([1]; seed soaking 100 nM): 39%; Plant height improved compared with the blank control ([1]; seed soaking 100 nM): 29%; Root fresh weight ([1]; seed soaking 100 nM): 0.069 ± 0.007a g; Root fresh weight improved compared with the blank control ([1]; seed soaking 100 nM): 109%; Root length ([1]; seed soaking 100 nM): 9.30 ± 0.26a cm; Root length improved compared with the blank control ([1]; seed soaking 100 nM): 27%; Plant height ([1]; seed soaking 100 nM): 29.88 ± 0.16a cm; Chlorophyll content improved compared with the blank control ([1]; seed soaking 1,000 nM): 32%; Plant height improved compared with the blank control ([1]; seed soaking 1,000 nM): 13%; Root fresh weight ([1]; seed soaking 1,000 nM): 0.052 ± 0.003b g; Root fresh weight improved compared with the blank control ([1]; seed soaking 1,000 nM): 58%; Root length ([1]; seed soaking 1,000 nM): 8.30 ± 0.17b cm; Root length improved compared with the blank control ([1]; seed soaking 1,000 nM): 14%; Plant height ([1]; seed soaking 1,000 nM): 26.20 ± 0.32b cm; Lateral root number ([2]; hydroponic 10 nM): 16.00 ± 1.73a piece; Root length ([2]; hydroponic 10 nM): 2.04 ± 0.67b cm; Lateral root number ([2]; hydroponic 100 nM): 19.33 ± 1.53a piece; Root length ([2]; hydroponic 100 nM): 5.36 ± 0.82a cm; Lateral root number ([2]; hydroponic 1,000 nM): 14.33 ± 5.13a piece; Root length ([2]; hydroponic 1,000 nM): 4.50 ± 1.28a cm; Cucumber root length improved compared with the blank control ([2]; hydroponic 10 nM): 33%; Number of root generation improved compared with the blank control ([2]; hydroponic 10 nM): 182%; Cucumber root length improved compared with the blank control ([2]; hydroponic 100 nM): 199%; Number of root generation (lateral root number) improved compared with the blank control ([2]; hydroponic 100 nM): 241%; Cucumber root length improved compared with the blank control ([2]; hydroponic 1,000 nM): 154%; Number of root generation improved compared with the blank control ([2]; hydroponic 1,000 nM): 153%; Plant height improved compared with 14-hydroxylated brassinosteroid 37.5 μg/L ([3]; 14.5 μg/L): 7%; Plant height improved compared with the blank control ([3]; 14.5 μg/L): 31%; Root fresh weight improved compared with 14-hydroxylated brassinosteroid 37.5 μg/L ([3]; 14.5 μg/L): 65%; Root fresh weight improved compared with the blank control ([3]; 14.5 μg/L): 70%; Root length improved compared with 14-hydroxylated brassinosteroid 37.5 μg/L ([3]; 14.5 μg/L): 24%; Root length improved compared with the blank control ([3]; 14.5 μg/L): 23%; Plant height [3, 17]: 7.00 ± 0.37a cm; Root fresh weight [3, 17]: 8.49 ± 0.12a g; Root length [3, 17]: 5.79 ± 0.36a cm; Plant height improved compared with 14-hydroxylated brassinosteroid 37.5 μg/L ([4]; 14.5 μg/L): 76%; Plant height improved compared with the blank control ([4]; 14.5 μg/L): 84%; Root fresh weight improved compared with 14-hydroxylated brassinosteroid 37.5 μg/L ([4]; 14.5 μg/L): 16%; Root fresh weight improved compared with the blank control ([4]; 14.5 μg/L): 232%; Root length improved compared with 14-hydroxylated brassinosteroid 37.5 μg/L ([4]; 14.5 μg/L): 18%; Root length improved compared with the blank control ([4]; 14.5 μg/L): 38%; Plant height [4, 18]: 20.80 ± 0.21a cm; Root fresh weight [4, 18]: 4.05 ± 0.07a g; Root length [4, 18]: 5.39 ± 0.43a cm; Plant height improved compared with 14-hydroxylated brassinosteroid 37.5 μg/L ([5]; 14.5 μg/L): 37%; Plant height improved compared with the blank control ([5]; 14.5 μg/L): 60%; Root fresh weight improved compared with 14-hydroxylated brassinosteroid 37.5 μg/L ([5]; 14.5 μg/L): 35%; Root fresh weight improved compared with the blank control ([5]; 14.5 μg/L): 49%; Root length improved compared with 14-hydroxylated brassinosteroid 37.5 μg/L ([5]; 14.5 μg/L): 7%; Root length improved compared with the blank control ([5]; 14.5 μg/L): 46%; Plant height [5, 18]: 9.32 ± 0.32a cm; Root fresh weight [5, 18]: 4.67 ± 0.09a g; Root length [5, 18]: 4.53 ± 0.33a cm; Chlorophyll content improved compared with the blank control [6, 19]: 21%; Leaf number improved compared with the blank control [6, 19]: 79%; Leaf width improved compared with the blank control [6, 19]: 32%; Plant height improved compared with the blank control [6, 19]: 49%; Leaf number ([6]; foliage spray 100 nM): 22.44 ± 4.32b leaf; Leaf width ([6]; foliage spray 100 nM): 5.33 ± 0.48b cm; Plant height ([6]; foliage spray 100 nM): 26.50 ± 3.60b cm; Leaf number ([6]; foliage spray 1,000 nM): 26.00 ± 4.76a leaf; Leaf width ([6]; foliage spray 1,000 nM): 6.59 ± 1.07a cm; Plant height ([6]; foliage spray 1,000 nM): 36.60 ± 3.28a cm; Mass of fruits per plant ([6]; foliage spray 100 nM): 29.06 ± 0.76b g; Number of fruits per plant ([6]; foliage spray 100 nM): 8.32 ± 0.47b fruit; Mass of fruits per plant ([6]; foliage spray 1,000 nM): 34.47 ± 0.58a g; Number of fruits per plant ([6]; foliage spray 1,000 nM): 9.72 ± 0.43a fruit; Chlorophyll content ([6]; foliage spray 100 nM): 3.50 ± 0.30ab mg/g · FW; Chlorophyll content ([6]; foliage spray 1,000 nM): 3.74 ± 0.65a mg/g · FW; Mass of fruits per plant improved compared to the blank control ([6]; strawberry plants, 1,000 nM): 44%; Number of fruits per plant improved compared to the blank control ([6]; strawberry plants, 1,000 nM): 39%; Inhibitory effect [7]: remarkable inhibitory effect; Inhibitory effect [8]: remarkable inhibitory effect; Inhibitory effect [9]: slight inhibitory effect; Inhibitory effect [10]: slight inhibitory effect; Inhibitory effect [11]: slight inhibitory effect; Inhibitory effect [12]: slight inhibitory effect; Inhibitory effect [13]: no inhibitory effect; Inhibitory effect [14]: no inhibitory effect; Inhibitory effect [15]: no inhibitory effect; Inhibitory effect [16]: no inhibitory effect

From patent publication US20240365782A1, “USE OF 2-AMINO-3-METHYLHEXANOIC ACID IN PROMOTING PLANT GROWTH AND INCREASING YIELD” (NANJING AGRICULTURAL UNIVERSITY, priority 2021, published 2024)
